From patent publication US5763442A, “Anti-parasitic activity” (Universiteit Van Pretoria, priority 1995, dated 1998)

Tests used:
P. falciparum (RB-1) = test: Direct antimalarial activity, flow cytometry, strain RB-1; type: cell-based, Plasmodium falciparum; details: for inhibition at 0.5 µg/mL: Plasmodium falciparum, 0.5 μg/ml, 48 h, FIG. 2, read-out: inhibition of growth of P. falciparum; for activity against the malaria microorganism Plasmodium falciparum: summary statement
Experimental: To investigate the direct antimalarial activity of the riminophenazines B669, B4100, B4103, B4112, B4121, B4158 and B4169 against a laboratory strain of P. falciparum the following experiment was done:
A laboratory strain of P. falciparum (RB-1; obtained from Dr B L Sharp, National Malaria Research Programme, MRC, Durban) was maintained.
For these experiments malaria cultures of haematocrit 5.0% and initial parasitemia 2.0% were used. The malaria infected erythrocytes (ring stage) were incubated in microtitre plates with serial dilutions of B669, B4100, B4103, B4112, B4121, B4158 and B4169 (0.125-2 μg/ml) for 48 hours and processed for analysis on the flow cytometer as described in Example 3.

P. falciparum (FAC 8) = test: Flow cytometry parasitaemia, chloroquine resistant strain FAC 8, chloroquine with/without B4112; type: cell-based, Plasmodium falciparum
Experimental: To test the activity of B4112 to reverse chloroquine resistance in Plasmodium falciparum, the following experiment was done:
A chloroquine resistant strain of P. falciparum (FAC 8) was obtained from Dr P Smith, University of Cape Town (originally from Dr A F Cowman, Royal Melbourne Hospital, Victoria, Australia).
Malaria infected erythrocytes (ring stage) were diluted with human O-positive red blood cells together with RPMI containing 44 mg/l hypoxanthine and 10% human type A serum to a parasitaemia of 2% and a haematocrit of 5%. This suspension was incubated in a gassed desiccator (5% O2, 5% CO2 and 90% N2) with serial dilutions of chloroquine ranging from 61-500 nM in 96-well microtitre culture plates for 48 hours in the presence or absence of a fixed concentration of B4112 (100 ng/ml). Relevant solvent controls were included.
At the end of the incubation period, 100 μl of the medium was removed from each well and replaced with a fixation solution containing 10 mM TRIS, 10 mM Na-Azide and 150 mM Na Cl. The plates were stored overnight at 4° C. and then 25 μl aliquots from each well were stained in test tubes with 0.5 ml thiazole orange at a concentration of 0.25 μg/ml in phosphate-buffered saline (PBS). After an incubation period of 1 hour at room temperature (in the dark), the tubes were placed on ice and the level of parasitaemia determined by flow cytometry using a Coulter Epics Profile II (Coulter Electronics Ltd, Hialeah, PLA, USA).

malaria parasites = details: background, cited from earlier work
[1] = system: Plasmodium falciparum (RB-1); test: Microscopic parasitaemia, chloroquine resistant strain RB-1 (reversal of chloroquine resistance); type: cell-based; details: 24 h
Experimental: (§1) The activity of riminophenazines to reverse chloroquine resistance in Plasmodium falciparum was tested in the following manner:
(§2) A preliminary series of experiments were carried out using two laboratory strains of P. falciparum (RB-1 and Fab-9). These strains were obtained from the Medical Research Council, Durban, where they were characterised as being either mildly resistant or sensitive to chloroquine. The isolates were maintained in suspension culture in known manner (as described by Freese J A, Markus M B and Golenser J, 1991; Bulletin of the World Health Organization 69: 707-712).
(§3) Infected erythrocytes were diluted with human O-positive red blood cells to a parasitaemia of 0.2-0.9% and suspended to 3% in RPMI containing 44 mg/l hypoxanthine and 10% human type O serum. Aliquots (100 μl) of the suspension were dispensed into the wells of 96-well microtitre plates. To these suspensions 100 μl of the medium were added containing either chloroquine or B669 alone or in combination. The final drug concentrations were 31, 62, 125, 250 500 and 1000 nM for chloroquine and 0.125, 0.25, 0.5 and 1.0 μg/ml for B669. Relevant solvent controls were included. The plates were incubated for 24 hours at 38° C. in a desiccator gassed with 5% O2, 5% CO2 and 90% N2. Thin blood smears were prepared from each well, stained with Giemsa stain and the percentage of red blood cells infected by at least one parasite determined microscopically.

[2] = system: Plasmodium falciparum (Fab-9); test: 3H-hypoxanthine uptake, chloroquine sensitive strain Fab-9; type: cell-based; details: Plasmodium falciparum, read-out: PERCENTAGE INHIBITION (3H-hypoxanthine uptake)
Experimental: (§4) The following experiment was done to confirm previous results which were obtained microscopically and details of which are set out in Example 1.
(§5) For this experiment the same two strains of P. falciparum, as used in Example 1 (RB-1 and Fab-9) were again used. Infected erythrocytes were diluted with human O-positive red blood cells to a parasitaemia of 0.2-0.9% and suspended to 3% in RPMI containing 44 mg/l hypxanthine and 10% human type serum. Aliquots (100 μl) of the suspension were dispensed into the wells of 96-well microtitre plates. To these suspensions 100 μl of the medium were added containing either chloroquine or B669 alone or a combination of chloroquine and B669. Relevant solvent controls were included. Negative control wells were also included containing uninfected red blood cells. The plates were incubated at 38° C. in a desiccator gassed with 5% O2, 5% CO2 and 90% N2. After 24 hours 100 μl culture medium of each well was replaced with […] of hypoxathine--free medium containing 10% human serum and 0,5μ Ci^3 H-hypoxanthine and incubated for a further 18 hours. The contents of the wells were then harvested on to glass fibre filters. The filters were washed with distilled water, dried, haemoglobin dissolved in a sodium bicarbonate solution and placed in scintillation vials containing 4 ml scintillation fluid and counted for 5 min in a liquid scintillation counter.
(§6) The percentage inhibition was calculated as follows: [formula] where CPM was the mean of two values of counts per minute for each treatment.

[3] = system: Plasmodium falciparum (RB-9); test: 3H-hypoxanthine uptake, chloroquine resistant strain (RB-9 [sic]); type: cell-based; details: Plasmodium falciparum, read-out: PERCENTAGE INHIBITION (3H-hypoxanthine uptake)
Experimental: as §4, §5, §6

[4] = system: Plasmodium falciparum (Fab-9); test: Microscopic parasitaemia, chloroquine sensitive strain Fab-9 (reversal of chloroquine resistance); type: cell-based; details: 24 h
Experimental: as §1, §2, §3

[5] = system: Plasmodium falciparum (RB-9); test: 3H-hypoxanthine uptake, chloroquine resistant strain (RB-9 [sic]); type: cell-based; details: read-out: PERCENTAGE INHIBITION (3H-hypoxanthine uptake)

## CC(C)c1ccc(Nc2cc3nc4ccccc4n(-c4ccc(C(C)C)cc4)c-3cc2=NC2CC(C)(C)NC(C)(C)C2)cc1 [Compound B4158, N,5-bis(4-isopropylphenyl)-3,5-dihydro-3-[(2',2',6',6'-tetramethyl-4-piperidyl)-imino]-2-phenazinarnine]
P. falciparum (RB-1)
  inhibition at 0.5 µg/mL: > 50%
  activity against the malaria microorganism Plasmodium falciparum: good activity

## CC1(C)CC(N=c2cc3n(-c4cccc(Cl)c4)c4ccccc4nc-3cc2Nc2cccc(Cl)c2)CC(C)(C)N1 [Compound B4112, N,5-bis(3-chlorophenyl)-3,5-dihydro-3-[(2',2',6',6'-tetramethyl-4-piperidyl)-imino]-2-phenazinamine]
P. falciparum (FAC 8); B4112 100 ng/ml + chloroquine 125 nM, FIG. 1
  sensitivity of P. falciparum to chloroquine (inhibition): 100%
P. falciparum (FAC 8); B4112 per se 100 ng/ml, 48 h
  inhibition of parasite growth: 27%
P. falciparum (FAC 8); FAC 8
  interaction of B4112 and chloroquine: clearly interacted synergistically
P. falciparum (RB-1)
  inhibition at 0.5 µg/mL: > 50%
  activity against the malaria microorganism Plasmodium falciparum: good activity

## CC1(C)CC(N=c2cc3n(-c4ccc(Cl)c(Cl)c4)c4ccccc4nc-3cc2Nc2ccc(Cl)c(Cl)c2)CC(C)(C)N1 [Compound B4100, N,5-bis(3,4-dichlorophenyl)-3,5-dihydro-3-[(2',2',6',6'-tetramethyl-4-piperidyl)-imino]-2-phenazinamine]
P. falciparum (RB-1)
  activity against the malaria microorganism Plasmodium falciparum: good activity

## COc1ccc(CCN(C)CCCC(C#N)(c2ccc(OC)c(OC)c2)C(C)C)cc1OC (centres unmarked) [verapamil]
Malaria parasites
  reversal of Pg H1-mediated chloroquine resistance: can be reversed
Malaria parasites; in vivo
  side effects of the dose required to reverse resistance: severe side effects in vivo

## CC1(C)CC(N=c2cc3n(-c4ccc(C(F)(F)F)cc4)c4ccccc4nc-3cc2Nc2ccc(C(F)(F)F)cc2)CC(C)(C)N1 [Compound B4103, N,5-bis(4-trifluoromethylphenyl)-3,5-dihydro-3[(2',2',6',6'-tetramethyl-4-piperidyl)imino]-2-phenazinamine]
P. falciparum (RB-1)
  inhibition at 0.5 µg/mL: > 50%

## CC1(C)CC(N=c2cc3n(-c4cc(Cl)cc(Cl)c4)c4ccccc4nc-3cc2Nc2cc(Cl)cc(Cl)c2)CC(C)(C)N1 [Compound B4121, N,5-bis(3,5-dichlorophenyl)-3,5-dihydro-3-[(2',2',6',6'-tetramethyl-4-piperidyl)-imino]-2-phenazinamine]
P. falciparum (RB-1)
  activity against the malaria microorganism Plasmodium falciparum: good activity

## CCN(CC)CCCC(C)Nc1ccnc2cc(Cl)ccc12 (centres unmarked) [chloroquine, reference compound]
[1]; chloroquine 31 nM alone
  Percentage red blood cells infected with P. falciparum (RB-1): 3.5%
[1]; chloroquine 62 nM alone
  Percentage red blood cells infected with P. falciparum (RB-1): 3.3%
[1]; chloroquine 125 nM alone
  Percentage red blood cells infected with P. falciparum (RB-1): 3.3%
[1]; chloroquine 250 nM alone
  Percentage red blood cells infected with P. falciparum (RB-1): 3.1%
[1]; chloroquine 500 nM alone
  Percentage red blood cells infected with P. falciparum (RB-1): 3.0%
[1]; chloroquine 1000 nM alone
  Percentage red blood cells infected with P. falciparum (RB-1): 0.4%
P. falciparum (FAC 8); Plasmodium falciparum, 48 h, read-out: concentration at which chloroquine per se inhibited the growth of the parasite
  minimal effective concentration: ≥ 0.25 µM
P. falciparum (FAC 8); Plasmodium falciparum, read-out: sensitivity of P. falciparum to chloroquine (inhibition)
  inhibition at 0.125 µM: 33%
[2]
  inhibition at 0.031 µM: 52.5%
  inhibition at 0.062 µM: 23.5%
  inhibition at 0.125 µM: 48.7%
  inhibition at 0.25 µM: 66.9%
  inhibition at 0.5 µM: 100%
  inhibition at 1 µM: 100%
[3]
  inhibition at 0.031 µM: 0%
  inhibition at 0.062 µM: 0%
  inhibition at 0.125 µM: 8%
  inhibition at 0.25 µM: 33%
  inhibition at 1 µM: 100%
[4]; chloroquine 31 nM alone
  Percentage red blood cells infected with P. falciparum (Fab-9): 4.9%
[4]; chloroquine 62 nM alone
  Percentage red blood cells infected with P. falciparum (Fab-9): 3.9%
[4]; chloroquine 125 nM alone, *parasites morphologically abnormal
  Percentage red blood cells infected with P. falciparum (Fab-9): 2.4%
[4]; chloroquine 250 nM alone, *parasites morphologically abnormal
  Percentage red blood cells infected with P. falciparum (Fab-9): 3.1%
[4]; chloroquine 500 nM alone, *parasites morphologically abnormal
  Percentage red blood cells infected with P. falciparum (Fab-9): 0.1%
[4]; chloroquine 1000 nM alone
  Percentage red blood cells infected with P. falciparum (Fab-9): 0%
[5]
  inhibition at 0.5 µM: 100%
